Source: patent publication US20260257998A1, “ERR MODULATORS” (University of Health Sciences and Pharmacy in St. Louis, priority 2023, published 2026)

Tests used:
ERRα = target: T1, ERRα (Homo sapiens, UniProt P11474); experiment: ERRE luciferase reporter assay in HEK293 cells transfected with pcDNA3.1 ERRα; assay type: cell-based; set-up: key to EC50 (ERRα): ***<1 μM; **1-5 μM; *>5 μM; i.a. (inactive); details: 24 hours treatment, luciferase activity
T1 construct: expressed in transfected cells; host or cells: HEK293
T1 sequence (P11474 1-423): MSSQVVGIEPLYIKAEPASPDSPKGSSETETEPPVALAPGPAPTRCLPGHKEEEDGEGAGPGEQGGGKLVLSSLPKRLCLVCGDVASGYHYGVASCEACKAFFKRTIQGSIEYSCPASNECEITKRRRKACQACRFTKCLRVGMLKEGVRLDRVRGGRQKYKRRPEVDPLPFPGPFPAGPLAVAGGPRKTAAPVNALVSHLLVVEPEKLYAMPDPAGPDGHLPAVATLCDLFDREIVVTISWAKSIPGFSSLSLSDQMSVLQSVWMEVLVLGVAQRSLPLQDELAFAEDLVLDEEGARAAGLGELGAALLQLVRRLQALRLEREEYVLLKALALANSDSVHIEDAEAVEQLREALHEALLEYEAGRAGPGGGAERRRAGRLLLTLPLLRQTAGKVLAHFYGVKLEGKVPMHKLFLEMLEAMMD
Protocol: (§1) HEK293 cells were maintained in Dulbecco's modified Eagles medium (DMEM) supplemented with 10% fetal bovine serum at 37° C. under 5% CO2. […] Cells were transfected with ERRE reporter construct and pcDNA3.1 ERRα or ERRγ. Twenty-four-hours post-transfection, the cells were treated with vehicle or compound (various concentrations) for 24 hours (4 wells per dose). Luciferase activity was measured using the One-Glo Tox luciferase reporter assay system (Promega) and […] were calculated using GraphPad Prism software.

ERRγ = target: T2, ERRγ (Homo sapiens, UniProt P62508); experiment: ERRE luciferase reporter assay in HEK293 cells transfected with pcDNA3.1 ERRγ; assay type: cell-based; set-up: key to EC50 (ERRγ): ***<1 μM; **1-5 μM; *>5 μM; i.a. (inactive); details: 24 hours treatment, luciferase activity
T2 construct: expressed in transfected cells; host or cells: HEK293
T2 sequence (P62508 1-458): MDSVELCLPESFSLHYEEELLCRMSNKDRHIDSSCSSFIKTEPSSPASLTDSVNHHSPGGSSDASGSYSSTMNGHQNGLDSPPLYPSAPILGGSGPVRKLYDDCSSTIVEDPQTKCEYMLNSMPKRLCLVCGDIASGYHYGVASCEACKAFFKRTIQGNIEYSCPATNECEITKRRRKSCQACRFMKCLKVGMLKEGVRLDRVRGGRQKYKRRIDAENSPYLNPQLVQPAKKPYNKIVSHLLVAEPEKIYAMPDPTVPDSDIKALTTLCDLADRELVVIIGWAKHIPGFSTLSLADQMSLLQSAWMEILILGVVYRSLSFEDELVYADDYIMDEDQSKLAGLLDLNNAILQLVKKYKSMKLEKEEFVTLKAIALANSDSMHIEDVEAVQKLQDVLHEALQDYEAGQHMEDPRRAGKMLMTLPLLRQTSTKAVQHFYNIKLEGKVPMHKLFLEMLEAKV
Protocol: as §1

SMILES	EC50 (ERRα)	EC50 (ERRγ)	EC50 (ERRα) (ERRα)	EC50 (ERRγ) (ERRγ)
Brc1cccc(C2=NNC(c3ccc4ccccc4c3)C2)c1 (stereo not drawn) [Entry 86, 3-(3-bromophenyl)-5-(naphthalen-2-yl)-4,5-dihydro-1H-pyrazole]	> 5 µM	> 5 µM		
Oc1cccc(C2CC(c3ccc(F)cc3)=NN2)c1 (stereo not drawn) [Entry 87, 3-(3-(4-fluorophenyl)-4,5-dihydro-1H-pyrazol-5-yl)phenol]	1 to 5 µM	> 5 µM		
Fc1cccc(C2=NNC(c3ccc4ccccc4c3)C2)c1 (stereo not drawn) [Entry 88, 3-(3-fluorophenyl)-5-(naphthalen-2-yl)-4,5-dihydro-1H-pyrazole]		1 to 5 µM	i.a.	
Oc1ccc(C2=NNC(c3ccc(Br)cc3)C2)cc1 (stereo not drawn) [Entry 89, 4-(5-(4-bromophenyl)-4,5-dihydro-1H-pyrazol-3-yl)phenol]	> 5 µM	> 5 µM		
Oc1cccc(C2CC(c3ccccc3F)=NN2)c1 (stereo not drawn) [Entry 90, 3-(3-(2-fluorophenyl)-4,5-dihydro-1H-pyrazol-5-yl)phenol]	1 to 5 µM	1 to 5 µM		
Fc1ccc(C2=NNC(c3ccc4ccccc4c3)C2)cc1 (stereo not drawn) [Entry 91, 3-(4-fluorophenyl)-5-(naphthalen-2-yl)-4,5-dihydro-1H-pyrazole]			i.a.	i.a.
Oc1ccccc1C1=NNC(c2ncc[nH]2)C1 (stereo not drawn) [Entry 92, 2-(5-(1H-imidazol-2-yl)-4,5-dihydro-1H-pyrazol-3-yl)phenol]	> 5 µM	1 to 5 µM		
Oc1ccc2cc(C3CC(c4ccc(Br)cc4)=NN3)ccc2c1 (stereo not drawn) [Entry 93, 6-(3-(4-bromophenyl)-4,5-dihydro-1H-pyrazol-5-yl)naphthalen-2-ol]			i.a.	i.a.
Oc1cccc(C2=NNC(c3ccc4cc(O)ccc4c3)C2)c1 (stereo not drawn) [Entry 94, 6-(3-(3-hydroxyphenyl)-4,5-dihydro-1H-pyrazol-5-yl)naphthalen-2-ol]	1 to 5 µM			i.a.
Oc1ccccc1C1=NNC(c2ccc(Br)cc2)C1 (stereo not drawn) [Entry 95, 2-(5-(4-bromophenyl)-4,5-dihydro-1H-pyrazol-3-yl)phenol]	< 1 µM	1 to 5 µM		
Oc1cccc(C2=NNC(c3ccccc3O)C2)c1 (stereo not drawn) [Entry 96, 2-(3-(3-hydroxyphenyl)-4,5-dihydro-1H-pyrazol-5-yl)phenol]	1 to 5 µM	> 5 µM		
Oc1cccc(C2CC(c3cccc(Br)c3)=NN2)c1 (stereo not drawn) [Entry 97, 3-(3-(3-bromophenyl)-4,5-dihydro-1H-pyrazol-5-yl)phenol]	1 to 5 µM	1 to 5 µM		
Oc1ccc2cc(C3CC(c4ccc(Cl)cc4)=NN3)ccc2c1 (stereo not drawn) [Entry 98, 6-(3-(4-chlorophenyl)-4,5-dihydro-1H-pyrazol-5-yl)naphthalen-2-ol]			i.a.	i.a.
Oc1cccc(C2=NNC(c3ccc4ccccc4c3)C2)c1 (stereo not drawn) [Entry 99, 3-(5-(naphthalen-2-yl)-4,5-dihydro-1H-pyrazol-3-yl)phenol]	1 to 5 µM	1 to 5 µM		
Oc1ccc(C2CC(c3cccc(O)c3)=NN2)cc1 (stereo not drawn) [Entry 100, 3-(5-(4-hydroxyphenyl)-4,5-dihydro-1H-pyrazol-3-yl)phenol]	1 to 5 µM	1 to 5 µM		
Clc1ccccc1C1=NNC(c2ccc3ccccc3c2)C1 (stereo not drawn) [Entry 101, 3-(2-chlorophenyl)-5-(naphthalen-2-yl)-4,5-dihydro-1H-pyrazole]	< 1 µM	< 1 µM		
Oc1cccc(C2=NNC(c3cnc[nH]3)C2)c1 (stereo not drawn) [Entry 102, 3-(5-(1H-imidazol-5-yl)-4,5-dihydro-1H-pyrazol-3-yl)phenol]	> 5 µM	> 5 µM		
Oc1ccccc1C1CC(c2ccccc2C(F)(F)F)=NN1 (stereo not drawn) [Entry 103, 2-(3-(2-(trifluoromethyl)phenyl)-4,5-dihydro-1H-pyrazol-5-yl)phenol]			i.a.	i.a.

SMILES	EC50 (ERRα)	EC50 (ERRγ)	EC50 (ERRα) (ERRα)	EC50 (ERRγ) (ERRγ)
Clc1ccc(C2=NNC(c3ccc4ccccc4c3)C2)cc1 (stereo not drawn) [Entry 104, 3-(4-chlorophenyl)-5-(naphthalen-2-yl)-4,5-dihydro-1H-pyrazole]			i.a.	i.a.
Cc1nc[nH]c1C1CC(c2ccc(Br)cc2)=NN1 (stereo not drawn) [Entry 105, 3-(4-bromophenyl)-5-(4-methyl-1H-imidazol-5-yl)-4,5-dihydro-1H-pyrazole]	> 5 µM	> 5 µM		
Fc1ccccc1C1=NNC(c2ccc3ccccc3c2)C1 (stereo not drawn) [Entry 106, 3-(2-fluorophenyl)-5-(naphthalen-2-yl)-4,5-dihydro-1H-pyrazole]	< 1 µM	< 1 µM		
Oc1ccc2cc(C3CC(c4ccccc4F)=NN3)ccc2c1 (stereo not drawn) [Entry 107, 6-(3-(2-fluorophenyl)-4,5-dihydro-1H-pyrazol-5-yl)naphthalen-2-ol]	1 to 5 µM	1 to 5 µM		
Oc1cccc(C2=NNC(c3ccc(Br)cc3)C2)c1 (stereo not drawn) [Entry 108, 3-(5-(4-bromophenyl)-4,5-dihydro-1H-pyrazol-3-yl)phenol]	1 to 5 µM	1 to 5 µM		
Oc1ccccc1C1=NNC(c2c[nH]cn2)C1 (stereo not drawn) [Entry 109, 2-(5-(1H-imidazol-4-yl)-4,5-dihydro-1H-pyrazol-3-yl)phenol]			i.a.	i.a.
Fc1ccccc1C1=NNC(c2ccc(Cl)c(Cl)c2)C1 (stereo not drawn) [Entry 110, 5-(3,4-dichlorophenyl)-3-(2-fluorophenyl)-4,5-dihydro-1H-pyrazole]			i.a.	i.a.
Clc1ccc(C2CC(c3ccccc3Br)=NN2)cc1Cl (stereo not drawn) [Entry 111, 3-(2-bromophenyl)-5-(3,4-dichlorophenyl)-4,5-dihydro-1H-pyrazole]			i.a.	i.a.
Clc1ccc(C2=NNC(c3ccc(Br)cc3)C2)cc1 (stereo not drawn) [Entry 112, 5-(4-bromophenyl)-3-(4-chlorophenyl)-4,5-dihydro-1H-pyrazole]			i.a.	i.a.
Brc1ccc(C2=NNC(c3ccc(Br)cc3)C2)cc1 (stereo not drawn) [Entry 113, 3,5-bis(4-bromophenyl)-4,5-dihydro-1H-pyrazole]			i.a.	i.a.
FC(F)(F)c1ccc(C2=NNC(c3ccc(Br)cc3)C2)cc1 (stereo not drawn) [Entry 114, 5-(4-bromophenyl)-3-(4-(trifluoromethyl)phenyl)-4,5-dihydro-1H-pyrazole]			i.a.	i.a.
CC(C)(C)c1cc(C2CC(c3ccc(Br)cc3)=NN2)c(O)c(C(C)(C)C)c1 (stereo not drawn) [Entry 115, 2-(3-(4-bromophenyl)-4,5-dihydro-1H-pyrazol-5-yl)-4,6-di-tert-butylphenol]			i.a.	i.a.
Oc1c(Br)cc(Br)cc1C1CC(c2ccc3ccccc3c2)=NN1 (stereo not drawn) [Entry 116, 2,4-dibromo-6-(3-(naphthalen-2-yl)-4,5-dihydro-1H-pyrazol-5-yl)phenol]			i.a.	i.a.
COc1ccc(C2=NNC(c3cc(Br)cc(Br)c3O)C2)cc1 (stereo not drawn) [Entry 117, 2,4-dibromo-6-(3-(4-methoxyphenyl)-4,5-dihydro-1H-pyrazol-5-yl)phenol]			i.a.	i.a.
Oc1cc(Br)ccc1C1CC(c2ccc(Br)cc2)=NN1 (stereo not drawn) [Entry 118, 5-bromo-2-(3-(4-bromophenyl)-4,5-dihydro-1H-pyrazol-5-yl)phenol]			i.a.	i.a.
Oc1cc(Br)ccc1C1CC(c2ccc(C(F)(F)F)cc2)=NN1 (stereo not drawn) [Entry 119, 5-bromo-2-(3-(4-(trifluoromethyl)phenyl)-4,5-dihydro-1H-pyrazol-5-yl)phenol]			i.a.	i.a.
Oc1ccccc1C1=NNC(c2ccc(Br)cc2O)C1 (stereo not drawn) [Entry 120, 5-bromo-2-(3-(2-hydroxyphenyl)-4,5-dihydro-1H-pyrazol-5-yl)phenol]	> 5 µM	> 5 µM		
Oc1ccccc1C1CC(c2cccc(Cl)c2)=NN1 (stereo not drawn) [Entry 142, 2-(3-(3-chlorophenyl)-4,5-dihydro-1H-pyrazol-5-yl)phenol]	1 to 5 µM	1 to 5 µM		
